This is an account of results in publication PMC10997566, “Kinetic profiling of novel spirobenzo-oxazinepiperidinone derivatives as equilibrative nucleoside transporter 1 inhibitors” (Purinergic Signalling, 2023).

The target in assay [1] is T1, hENT1 (Homo sapiens, UniProt Q99808).
T1 sequence (Q99808 1-456): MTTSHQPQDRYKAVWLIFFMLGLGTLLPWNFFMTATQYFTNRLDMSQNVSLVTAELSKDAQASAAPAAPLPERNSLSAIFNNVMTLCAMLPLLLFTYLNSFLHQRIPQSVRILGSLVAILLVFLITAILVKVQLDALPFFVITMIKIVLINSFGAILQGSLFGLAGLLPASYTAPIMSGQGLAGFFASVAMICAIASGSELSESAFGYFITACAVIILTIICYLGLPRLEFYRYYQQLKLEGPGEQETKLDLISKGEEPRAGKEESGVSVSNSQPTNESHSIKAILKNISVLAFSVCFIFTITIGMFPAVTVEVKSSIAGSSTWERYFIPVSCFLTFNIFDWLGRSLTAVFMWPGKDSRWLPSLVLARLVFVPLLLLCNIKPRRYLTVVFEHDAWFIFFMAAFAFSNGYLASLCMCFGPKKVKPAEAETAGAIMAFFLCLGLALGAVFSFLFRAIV
The experiment in a line: [3H]NBTI radioligand displacement assay. As to conditions: Ki relative to compound 1.

Assay [2] deals with T1, hENT1. The experiment in a line: [3H]NBTI competition association assay (Motulsky and Mahan). As to conditions: 10 °C; for RT (residence time): RT = 1/koff; for koff / kon: human erythrocyte membranes, competitor at IC50 concentration, mean ± SEM.
Assay [3] deals with T1, hENT1. The experiment in a line: Washout assay with [3H]NBTI binding after four wash cycles. More on the design: For our experiments, we used human erythrocytes as a source of hENT1; from tissue; host or cells: human erythrocytes (membrane preparation). As to conditions: 10 °C; for inhibitor washed away (recovery of [3H]NBTI binding): 1 h pre-incubation at 10 × IC50, four wash and centrifugation cycles, erythrocyte membranes. As for the experimental part: Centrifugation at 13,200 rpm (16,100 × g) at 4 °C for 5 min separated pellet and supernatant, with the latter containing the unbound ligand being removed. Pellets were resuspended in 1 mL of assay buffer, and samples were incubated for 10 min at 10 °C. In total, four centrifugation-washing cycles were performed. […] Rapid filtration through GF/C filters using a Brandel harvester (Brandel, Gaithersburg, MD) terminated the experiment. Filters were washed three times using ice-cold wash buffer and the samples were counted by scintillation spectrometry using a Tri-carb 2900 TR liquid scintillation counter (Perkin Elmer, Boston, MA).
A washout assay was used to validate the findings in the competition association assays (Fig. 2C). […] The unwashed condition was also similarly assessed, but no wash and centrifugation cycle occurred before the determination of radioligand binding. The results of both washed and unwashed samples were compared to the control condition without any competitor (100% washed and unwashed radioligand binding, respectively).

Assay [4] deals with T1, hENT1. More on the design: For our experiments, we used human erythrocytes as a source of hENT1; from tissue; host or cells: human erythrocytes (membrane preparation); method as in PMID 31830468. Particulars: earlier study, same experimental protocol; cited from earlier work.

Consider `CNc1cc2c(cc1Cl)C(=O)NC1(CCN(CCNC(=O)c3c(Cl)cccc3Cl)CC1)O2` [Compound 2], for which the “increase in affinity compared to 1” value in assay [1] is given as “approximately 30 fold”. For the same compound, in assay [2], the “RT (residence time)” value was determined as 4.9 ± 1.1 min; the koff – broadly, the first-order rate constant of dissociation – was 0.00338 ± 0.000783 s⁻¹; the kon (as a rule, a measure of how fast the partners come together) is 2.05e+06 ± 483000 M⁻¹ s⁻¹.

Take `CN(C)c1cc2c(cc1Cl)C(=O)NC1(CCN(CCNC(=O)c3c(Cl)cccc3Cl)CC1)O2` [Compound 3]: the “increase in affinity compared to 1” value in assay [1] is “approximately 30 fold”. In addition, in assay [2], the “RT (residence time)” value is listed as 6.6 ± 0.9 min, the koff came out at 0.00252 ± 0.000333 s⁻¹ and the kon was 2.63e+06 ± 800000 M⁻¹ s⁻¹.

For `CC(=O)Nc1cc2c(cc1Cl)C(=O)NC1(CCN(CCNC(=O)c3c(Cl)cccc3Cl)CC1)O2` [Compound 4], in assay [2], the “RT (residence time)” value is on record as 2.6 ± 0.7 min, the koff was 0.00643 ± 0.00178 s⁻¹ and the kon came to 200000 ± 100000 M⁻¹ s⁻¹.

As for `COCNc1cc2c(cc1Cl)C(=O)NC1(CCN(CCNC(=O)c3c(Cl)cccc3Cl)CC1)O2` [Compound 5], in assay [2], the “RT (residence time)” value is 5.4 ± 0.7 min, the koff was determined as 0.00308 ± 0.000383 s⁻¹ and the kon came out at 600000 ± 100000 M⁻¹ s⁻¹.

Consider `O=C1NC2(CCN(CCNC(=O)c3c(Cl)cccc3Cl)CC2)Oc2cc(NC3CCCC3)c(Cl)cc21` [Compound 6], for which, in assay [2], the “RT (residence time)” value amounted to 21 ± 1.4 min, the koff was 0.0008 ± 5e-05 s⁻¹ and the kon was 1.68e+06 ± 583000 M⁻¹ s⁻¹.

Consider `CNCCCNc1cc2c(cc1Cl)C(=O)NC1(CCN(CCNC(=O)c3c(Cl)cccc3Cl)CC1)O2` [Compound 8], for which, in assay [2], the “RT (residence time)” value was 3.4 ± 0.6 min, the koff is 0.00493 ± 0.000833 s⁻¹ and the on-rate constant (kon) amounted to 183000 ± 67000 M⁻¹ s⁻¹.

Turning to `CC(=O)NCCCNc1cc2c(cc1Cl)C(=O)NC1(CCN(CCNC(=O)c3c(Cl)cccc3Cl)CC1)O2` [Compound 9], in assay [2], the “RT (residence time)” value is recorded as 10 ± 0.9 min, the koff is 0.0016 ± 0.00013 s⁻¹ and the kon worked out at 417000 ± 83000 M⁻¹ s⁻¹.

In the case of `CN(CCCNc1cc2c(cc1Cl)C(=O)NC1(CCN(CCNC(=O)c3c(Cl)cccc3Cl)CC1)O2)C(=O)OC(C)(C)C` [Compound 10], in assay [2], the “RT (residence time)” value turned out to be 26 ± 2.0 min, the koff was determined as 0.000633 ± 5e-05 s⁻¹ and the kon stood at 550000 ± 50000 M⁻¹ s⁻¹.

With `O=C1NC2(CCN(CCNC(=O)c3c(Cl)cccc3Cl)CC2)Oc2cc(N3CCOCC3)c(Cl)cc21` [Compound 11], in assay [2], the “RT (residence time)” value stood at 16 ± 3.3 min, the koff came to 0.00107 ± 0.000233 s⁻¹ and the kon is 667000 ± 100000 M⁻¹ s⁻¹.

Regarding `O=C1NC2(CCN(CCNC(=O)c3c(Cl)cccc3Cl)CC2)Oc2cc(N3CCNCC3)c(Cl)cc21` [Compound 12], in assay [2], the “RT (residence time)” value turned out to be 2.9 ± 0.2 min, the koff stood at 0.00583 ± 0.000433 s⁻¹ and the kon came to 633000 ± 67000 M⁻¹ s⁻¹.

Consider `CN1CCN(c2cc3c(cc2Cl)C(=O)NC2(CCN(CCNC(=O)c4c(Cl)cccc4Cl)CC2)O3)CC1` [Compound 13], for which, in assay [2], the “RT (residence time)” value was found to be 11 ± 0.5 min, the koff was 0.00148 ± 6.7e-05 s⁻¹ and the kon came out at 450000 ± 67000 M⁻¹ s⁻¹.

With `CC(C)(C)OC(=O)N1CCN(c2cc3c(cc2Cl)C(=O)NC2(CCN(CCNC(=O)c4c(Cl)cccc4Cl)CC2)O3)CC1` [Compound 14], in assay [2], the “RT (residence time)” value is recorded as 38 ± 14 min, the koff came out at 0.00045 ± 0.000167 s⁻¹ and the kon worked out at 333000 ± 17000 M⁻¹ s⁻¹.

For the compound `O=C1NC2(CCN(CCNC(=O)c3c(Cl)cccc3Cl)CC2)Oc2cc(NC3CCOCC3)c(Cl)cc21` [Compound 15], in assay [2], the “RT (residence time)” value was 10 ± 0.7 min, the koff came out at 0.00167 ± 0.00012 s⁻¹ and the on-rate (kon) was 550000 ± 130000 M⁻¹ s⁻¹.

On to `O=C1NC2(CCN(CCNC(=O)c3c(Cl)cccc3Cl)CC2)Oc2cc(NC3CCNCC3)c(Cl)cc21` [Compound 16], for which, in assay [2], the “RT (residence time)” value was found to be 2.2 ± 0.4 min, the dissociation rate constant (koff) turned out to be 0.00773 ± 0.00153 s⁻¹ and the kon came out at 267000 ± 33000 M⁻¹ s⁻¹.

Regarding `CN1CCC(Nc2cc3c(cc2Cl)C(=O)NC2(CCN(CCNC(=O)c4c(Cl)cccc4Cl)CC2)O3)CC1` [Compound 17], in assay [2], the “RT (residence time)” value is 1.9 ± 0.1 min, the koff came out at 0.00892 ± 0.000517 s⁻¹ and the kon is 367000 ± 33000 M⁻¹ s⁻¹.

As for `CC(=O)N1CCC(Nc2cc3c(cc2Cl)C(=O)NC2(CCN(CCNC(=O)c4c(Cl)cccc4Cl)CC2)O3)CC1` [Compound 18], in assay [2], the “RT (residence time)” value was determined as 26 ± 6.5 min, the koff was found to be 0.000633 ± 0.00015 s⁻¹ and the kon was found to be 433000 ± 50000 M⁻¹ s⁻¹. For the same compound, the “inhibitor washed away (recovery of [3H]NBTI binding)” value (shortened to “inhibitor washed away”) in assay [3] was “approximately 60%”.

Regarding `CC(C)(C)OC(=O)N1CCC(Nc2cc3c(cc2Cl)C(=O)NC2(CCN(CCNC(=O)c4c(Cl)cccc4Cl)CC2)O3)CC1` [Compound 19], in assay [2], the “RT (residence time)” value turned out to be 34 ± 9.7 min, the dissociation rate constant (koff) is 0.0005 ± 0.00015 s⁻¹ and the kon stood at 317000 ± 17000 M⁻¹ s⁻¹.

As for `CC(C)Oc1cc2c(cc1Cl)C(=O)NC1(CCN(CCNC(=O)c3c(Cl)cccc3Cl)CC1)O2` [Compound 21], in assay [2], the “RT (residence time)” value is given as 18 ± 3.6 min, the koff was found to be 0.000933 ± 0.000183 s⁻¹ and the kon came out at 2.17e+06 ± 850000 M⁻¹ s⁻¹.

As to `O=C1NC2(CCN(CCNC(=O)c3c(Cl)cccc3Cl)CC2)Oc2cc(OC3CCCC3)c(Cl)cc21` [Compound 22], in assay [2], the “RT (residence time)” value amounted to 35 ± 7.6 min, the koff came to 0.000483 ± 0.0001 s⁻¹ and the kon is 483000 ± 120000 M⁻¹ s⁻¹.

Consider `O=C1NC2(CCN(CCNC(=O)c3c(Cl)cccc3Cl)CC2)Oc2cc(OC3CCNCC3)c(Cl)cc21` [Compound 23], for which, in assay [2], the off-rate (koff) was 0.0034 ± 0.00085 s⁻¹ and the kon was 2.03e+06 ± 667000 M⁻¹ s⁻¹. Further, in assay [3], the “inhibitor washed away” value is “completely washed away”.

As to `CN1CCC(Oc2cc3c(cc2Cl)C(=O)NC2(CCN(CCNC(=O)c4c(Cl)cccc4Cl)CC2)O3)CC1` [Compound 24], in assay [2], the koff came to 0.0069 ± 0.00142 s⁻¹ and the on-rate (kon) is 2.12e+06 ± 333000 M⁻¹ s⁻¹.

As to `CC(=O)N1CCC(Oc2cc3c(cc2Cl)C(=O)NC2(CCN(CCNC(=O)c4c(Cl)cccc4Cl)CC2)O3)CC1` [Compound 25], in assay [2], the “RT (residence time)” value is 72 ± 14 min, the koff stood at 0.000233 ± 5e-05 s⁻¹ and the kon turned out to be 533000 ± 67000 M⁻¹ s⁻¹. Further, the “inhibitor washed away” value in assay [3] turned out to be 37%. Moreover, the “inhibitor still bound to the target” value in assay [3] (after four extensive washing steps, 10 × IC50 pre-incubation) is given as “more than 60%”.

On to `CC(=O)N1CCC(Oc2cc3c(cc2Cl)C(=O)CC2(CCN(CCNC(=O)c4c(Cl)cccc4Cl)CC2)O3)CC1` [Compound 26], for which, in assay [2], the “RT (residence time)” value turned out to be 66 ± 20 min, the koff was 0.00025 ± 8.3e-05 s⁻¹ and the kon came to 717000 ± 130000 M⁻¹ s⁻¹.

Consider `CC(=O)N1CCC(Oc2cc3c(cc2Cl)C(O)CC2(CCN(CCNC(=O)c4c(Cl)cccc4Cl)CC2)O3)CC1` (stereo not drawn) [Compound 27], for which, in assay [2], the “RT (residence time)” value was 79 ± 20 min, the off-rate constant (koff) turned out to be 0.000217 ± 5e-05 s⁻¹ and the kon amounted to 900000 ± 250000 M⁻¹ s⁻¹.

With `CC(=O)N1CCC(Oc2cc3c(cc2Cl)C=CC2(CCN(CCNC(=O)c4c(Cl)cccc4Cl)CC2)O3)CC1` [Compound 28], in assay [2], the “RT (residence time)” value is reported as 87 ± 8.7 min, the koff was determined as 0.000183 ± 1.7e-05 s⁻¹ and the kon is 1.62e+06 ± 120000 M⁻¹ s⁻¹.

With `CC(=O)N1CCC(Oc2cc3c(cc2Cl)CCC2(CCN(CCNC(=O)c4c(Cl)cccc4Cl)CC2)O3)CC1` [Compound 29], in assay [2], the “RT (residence time)” value is 52 ± 20 min, the koff was found to be 0.000317 ± 0.00012 s⁻¹ and the kon was found to be 1.58e+06 ± 333000 M⁻¹ s⁻¹.

For the compound `NC(=O)C1CN(CCCCC(c2ccc(F)cc2)c2ccc(F)cc2)CCN1CC(=O)Nc1c(Cl)cc(N)cc1Cl` (stereo not drawn) [Draflazine], the RT in assay [4] is 88 min.

Consider `COc1cc(C(=O)OCCCN2CCCN(CCCOC(=O)c3cc(OC)c(OC)c(OC)c3)CC2)cc(OC)c1OC` [dilazep], for which, in assay [4], the RT is recorded as 44 min.
